In the CheMixHub viscosity set:
± gives the uncertainty stated by the source.

Experiment: xn = mol fraction of the nth substance listed

C=CC(=O)OCC + CCCCC(C)O
viscosity [mPa·s], 101 kPa
Details	298.15 K	308.15 K
x1 = 0.05505	3.659 ± 0.029	2.636 ± 0.025
x1 = 0.09982	3.336 ± 0.026	2.426 ± 0.023
x1 = 0.1555	2.973 ± 0.023	2.188 ± 0.02
x1 = 0.1998	2.712 ± 0.021	2.015 ± 0.019
x1 = 0.2555	2.417 ± 0.019	1.817 ± 0.017
x1 = 0.2999	2.205 ± 0.017	1.673 ± 0.015
x1 = 0.3554	1.965 ± 0.015	1.509 ± 0.014
x1 = 0.3999	1.793 ± 0.014	1.389 ± 0.013
x1 = 0.4555	1.598 ± 0.013	1.253 ± 0.012
x1 = 0.4999	1.458 ± 0.012	1.154 ± 0.011
x1 = 0.5556	1.299 ± 0.011	1.04 ± 0.01
x1 = 0.5999	1.185 ± 0.01	0.958 ± 0.009
x1 = 0.6554	1.056 ± 0.009	0.864 ± 0.009
x1 = 0.6995	0.964 ± 0.009	0.797 ± 0.008
x1 = 0.7554	0.859 ± 0.008	0.718 ± 0.008
x1 = 0.7999	0.783 ± 0.008	0.661 ± 0.008
x1 = 0.8555	0.698 ± 0.008	0.596 ± 0.007
x1 = 0.8999	0.637 ± 0.007	0.549 ± 0.007
x1 = 0.9555	0.568 ± 0.007	0.495 ± 0.007

CCOP(=O)(OCC)OCC + CC(=O)N(C)C
298.15 K, 101.3 kPa
Details	viscosity [mPa·s]
x1 = 0.1085	0.997 ± 0.021
x1 = 0.2118	1.066 ± 0.021
x1 = 0.3173	1.133 ± 0.021
x1 = 0.4275	1.199 ± 0.021
x1 = 0.5277	1.257 ± 0.021
x1 = 0.5946	1.294 ± 0.021
x1 = 0.7173	1.36 ± 0.022
x1 = 0.8144	1.41 ± 0.022
x1 = 0.8998	1.456 ± 0.022

CCOP(=O)(OCC)OCC + CNC=O
298.15 K, 101.3 kPa
Details	viscosity [mPa·s]
x1 = 0.0969	1.719 ± 0.024
x1 = 0.1954	1.713 ± 0.023
x1 = 0.294	1.689 ± 0.023
x1 = 0.399	1.654 ± 0.023
x1 = 0.5004	1.625 ± 0.023
x1 = 0.5987	1.599 ± 0.022
x1 = 0.6978	1.571 ± 0.022
x1 = 0.799	1.546 ± 0.022
x1 = 0.8929	1.524 ± 0.022

OCCCCCO + O=C1CCCN1
308.15 K, 101 kPa
Details	viscosity [mPa·s]
x1 = 0.479	21.15 ± 0.44
x1 = 0.9392	54.65 ± 1.1

CCc1ccccc1 + C1CCCCC1
303.15 K, 101 kPa
Details	viscosity [mPa·s]
x2 = 0.1	0.5951 ± 0.0042
x2 = 0.199	0.5943 ± 0.0042
x2 = 0.2994	0.5972 ± 0.0042
x2 = 0.3986	0.6025 ± 0.0042
x2 = 0.5008	0.6166 ± 0.0043
x2 = 0.5984	0.6366 ± 0.0044
x2 = 0.7004	0.6596 ± 0.0045
x2 = 0.798	0.7008 ± 0.0046
x2 = 0.9002	0.7571 ± 0.0049

Clc1ccccc1 + COCCO
303.15 K, 101.33 kPa
Details	viscosity [mPa·s]
x2 = 0.1075	0.749 ± 0.01
x2 = 0.2093	0.782 ± 0.01
x2 = 0.3086	0.836 ± 0.011
x2 = 0.4113	0.894 ± 0.012
x2 = 0.4993	0.952 ± 0.012
x2 = 0.6006	1.028 ± 0.013
x2 = 0.7032	1.113 ± 0.014
x2 = 0.8023	1.201 ± 0.015
x2 = 0.9234	1.309 ± 0.016

CCCC(C)C + CCCCCCCCCCCC
298 K, 101.33 kPa
Details	viscosity [mPa·s]
x1 = 0.1004	1.205 ± 0.016
x1 = 0.2007	1.075 ± 0.014
x1 = 0.3018	0.939 ± 0.013
x1 = 0.4027	0.8181 ± 0.011
x1 = 0.5008	0.7124 ± 0.01
x1 = 0.6002	0.6097 ± 0.0088
x1 = 0.6996	0.5148 ± 0.0077
x1 = 0.8002	0.4229 ± 0.0066
x1 = 0.9003	0.3443 ± 0.0056

CCCCC(CC)CN (centres undefined) + COCCOCCOCCOCCOC
viscosity [mPa·s], 101.33 kPa
Details	x2 = 0.0607	x2 = 0.127	x2 = 0.199	x2 = 0.279	x2 = 0.368	x2 = 0.466	x2 = 0.576	x2 = 0.699	x2 = 0.84
303.2 K	1.04 ± 0.06	1.14 ± 0.1	1.26 ± 0.06	1.39 ± 0.09	1.58 ± 0.09	1.74 ± 0.1	1.99 ± 0.11	2.24 ± 0.13	2.55 ± 0.14
313.2 K	0.89 ± 0.05	0.97 ± 0.05	1.07 ± 0.06	1.16 ± 0.06	1.3 ± 0.07	1.43 ± 0.08	1.59 ± 0.09	1.87 ± 0.11	2.09 ± 0.12

Clc1ccccc1 + CC(C)CO
viscosity [mPa·s], 101.33 kPa
Details	x1 = 0.101	x1 = 0.2015	x1 = 0.2966	x1 = 0.4019	x1 = 0.4952	x1 = 0.5979	x1 = 0.6965	x1 = 0.8009	x1 = 0.8977
298.15 K	2.558 ± 0.02	1.975 ± 0.015	1.593 ± 0.013	1.301 ± 0.011	1.124 ± 0.0093	0.9772 ± 0.0082	0.8803 ± 0.0075	0.8094 ± 0.007	0.7666 ± 0.0067
313.15 K	1.663 ± 0.013	1.336 ± 0.011	1.128 ± 0.0093	0.9531 ± 0.0081	0.8497 ± 0.0073	0.7614 ± 0.0067	0.7035 ± 0.0062	0.6586 ± 0.0059	0.633 ± 0.0057

N#CCCCCC#N + CCCCOC(C)=O
303.15 K, 101.33 kPa
Details	viscosity [mPa·s]
x1 = 0.0984	0.7145 ± 0.0048
x1 = 0.3003	1.052 ± 0.0066
x1 = 0.3857	1.281 ± 0.0079
x1 = 0.4963	1.663 ± 0.0099
x1 = 0.5929	2.082 ± 0.012
x1 = 0.6974	2.631 ± 0.015
x1 = 0.8455	3.61 ± 0.02

Clc1cccc2ccccc12 + CCCCCCO
viscosity [mPa·s], 101.33 kPa
Details	x1 = 0.1047	x1 = 0.2004	x1 = 0.3023	x1 = 0.3992	x1 = 0.5019	x1 = 0.6012	x1 = 0.6993	x1 = 0.8002	x1 = 0.9013
298.15 K	3.951 ± 0.18	3.68 ± 0.17	3.366 ± 0.16	3.133 ± 0.15	2.903 ± 0.15	2.781 ± 0.15	2.706 ± 0.15	2.638 ± 0.16	2.647 ± 0.17
303.15 K	3.335 ± 0.15	3.105 ± 0.14	2.858 ± 0.14	2.67 ± 0.13	2.506 ± 0.13	2.455 ± 0.13	2.44 ± 0.14	2.304 ± 0.14	2.337 ± 0.15
308.15 K	2.608 ± 0.12	2.423 ± 0.11	2.248 ± 0.11	2.084 ± 0.11	1.971 ± 0.1	1.951 ± 0.11	1.942 ± 0.11	1.969 ± 0.12	2.066 ± 0.13

Clc1ccccc1 + COC(C)=O
viscosity [mPa·s], 101 kPa
Details	298.15 K	308.15 K
x2 = 0.0395	0.734 ± 0.005	0.662 ± 0.005
x2 = 0.1406	0.685 ± 0.005	0.619 ± 0.005
x2 = 0.2347	0.642 ± 0.005	0.581 ± 0.005
x2 = 0.3286	0.602 ± 0.005	0.547 ± 0.005
x2 = 0.4168	0.566 ± 0.005	0.516 ± 0.004
x2 = 0.4647	0.548 ± 0.005	0.5 ± 0.004
x2 = 0.5282	0.525 ± 0.004	0.479 ± 0.004
x2 = 0.6291	0.491 ± 0.004	0.448 ± 0.004
x2 = 0.7341	0.458 ± 0.004	0.418 ± 0.004
x2 = 0.8394	0.427 ± 0.004	0.39 ± 0.004
x2 = 0.9331	0.401 ± 0.004	0.367 ± 0.004

Clc1cccc2ccccc12 + CO
viscosity [mPa·s], 101.33 kPa
Details	x1 = 0.0998	x1 = 0.1992	x1 = 0.302	x1 = 0.4003	x1 = 0.4961	x1 = 0.5978	x1 = 0.6961	x1 = 0.801	x1 = 0.8922
298.15 K	0.814 ± 0.012	1.096 ± 0.018	1.372 ± 0.027	1.617 ± 0.039	1.847 ± 0.052	2.064 ± 0.067	2.237 ± 0.082	2.454 ± 0.1	2.67 ± 0.12
303.15 K	0.75 ± 0.011	1.002 ± 0.017	1.249 ± 0.025	1.468 ± 0.035	1.672 ± 0.047	1.863 ± 0.06	2.012 ± 0.074	2.197 ± 0.092	2.385 ± 0.11
308.15 K	0.689 ± 0.01	0.918 ± 0.015	1.142 ± 0.023	1.336 ± 0.032	1.516 ± 0.042	1.683 ± 0.055	1.818 ± 0.067	1.984 ± 0.083	2.157 ± 0.099
